Columns and labels:
HT-29 = experiment: Cytotoxicity against human HT29 cells; format: functional, cell-based
HeLa = experiment: Cytotoxicity against human HeLa cells; format: functional, cell-based
Tubulin (Homo sapiens) [1] = molecular target: T1, Tubulin (Homo sapiens) (UniProt P68371+Q9H4B7+P0DPH7+P68366+Q13509+Q71U36+P04350+Q3ZCM7+P07437+P68363+Q9BQE3+Q6PEY2+Q13885+Q9BVA1+Q9BUF5); experiment: Inhibition of tubulin polymerization at 20 uM; format: protein-complex assay
A549 = experiment: Cytotoxicity against human A549 cells; format: functional, cell-based
Tubulin (Homo sapiens) [2] = molecular target: T1, Tubulin (Homo sapiens); experiment: Inhibition of tubulin polymerization at 40 uM; format: protein-complex assay

inhibition (Tubulin (Homo sapiens) [1]) [%] | inhibition (Tubulin (Homo sapiens) [2]) [%] | Structure (SMILES) | IC50 (HT-29) [nM] | IC50 (HeLa) [nM] | IC50 (A549) [nM]
5 |  | COc1cc(C(OC(C)=O)c2ccc3ccccc3c2)cc(OC)c1OC (centres undefined) | > 10000 | 3800 | > 10000
26 |  | COc1ccc(C(OC(C)=O)c2ccc3ccccc3c2)c(OC)c1OC (centres undefined) | > 10000 | 2700 | > 10000
4 |  | COc1ccc(C(=O)c2ccc3ccccc3c2)c(OC)c1OC | > 10000 | 1700 | > 10000

The remaining lines, values behind:

Structure (SMILES) | inhibition (Tubulin (Homo sapiens) [1]) [%] | inhibition (Tubulin (Homo sapiens) [2]) [%] | IC50 (HT-29) [nM] | IC50 (HeLa) [nM] | IC50 (A549) [nM]
COc1ccc(/C=C\c2cc(OC)c(OC)c(OC)c2)cc1O [COMBRETASTATIN A4] |  |  | 3 |  | 
COc1cc(C(O)c2ccc3ccccc3c2)cc(OC)c1OC (centres undefined) |  | 0 |  |  | 
COc1cc(/C=C\c2ccc3ccccc3c2)cc(OC)c1OC [NAPHTHYLCOMBRETASTATIN] |  |  | 20 | 20 | 20
COc1ccc(C(O)c2ccc3ccccc3c2)c(OC)c1OC (centres undefined) | 0 |  | > 10000 | > 10000 | > 10000
COc1cc(C(=O)c2ccc3ccccc3c2)cc(OC)c1OC |  | 100 |  | 42 | 250
